Holding throughout (type): cell-based
One assay concerns Target C mRNA. Kind of assay: Splicing RT-qPCR gene panel, Target C canonical junction (CJ) mRNA. The note with it: Homo sapiens; Table 8; larger gene panel, decrease in CJ mRNA levels. On the procedure: (§1) Compounds described herein were used to modulate RNA transcript abundance in cells. The expression of a target mRNA was measured by detecting the formation of an exon-exon junction in the canonical transcript (CJ). A compound mediated exon-inclusion event was detected by observing an increase in formation of a new junction with an alternative exon (AJ). Real-time qPCR assays were used to detect these splicing switches and interrogate the potency of various compounds towards different target genes. A high-throughput real time quantitative PCR (RT-qPCR) assay was developed to measure these two isoforms of the mRNA (CJ and AJ) for exemplary genes, such as HTT, SMN2, and MYB, together with a control housekeeping gene, GAPDH or GUSB or PPIA, used for normalization. Briefly, the A673 or K562 cell line was treated with various compounds described herein (e.g., compounds of Formula (I)). After treatment, the levels of the HTT, MYB, or SMN2 mRNA targets were determined from each sample of cell lysate by cDNA synthesis followed by qPCR.
(§2) The A673 cell line was cultured in DMEM with 10% FBS. Cells were diluted with full growth media and plated in a 96-well plate (15,000 cells in 100 ul media per well). The plate was incubated at 37° C. with 5% CO2 for 24 hours to allow cells to adhere. An 11-point 3-fold serial dilution of the compounds was made in DMSO then diluted in media in an intermediate plate. Compounds were transferred from the intermediate plate to the cell plate with the top dose at a final concentration of 10 uM in the well. Final DMSO concentration was kept at or below 0.25%. The cell plate was returned to the incubator at 37° C. with 5% CO2 for an additional 24 hours.
(§3) The K562 cell line was cultured in IMDM with 10% FBS. For K562, cells were diluted with full growth media and plated in either a 96-well plate (50,000 cells in 50 uL media per well) or a 384-well plate (8,000-40,000 cells in 45 uL media per well). An 11-point 3-fold serial dilution of the compounds were made in DMSO then diluted in media in an intermediate plate. Compound was transferred from the intermediate plate to the cell plate with the top dose at a final concentration of 10 uM in the well. Final DMSO concentration was kept at or below 0.25%. Final volume was 100 uL for 96-well plate and 50 uL for 384-well plate. The cell plate was then placed in an incubator at 37° C. with 5% CO2 for 24 hours.
(§4) The cells were then gently washed with 50 uL-100 uL cold PBS before proceeding to addition of lysis buffer. 30 uL-50 uL of room temperature lysis buffer with DNAse I (and optionally RNAsin) was added to each well. Cells were shaken/mixed thoroughly at room temperature for 5-10 minutes for lysis to take place and then 3 uL-5 uL of room temperature stop solution was added and wells were shaken/mixed again. After 2-5 minutes, the cell lysate plate was transferred to ice for RT-qPCR reaction setup. The lysates could also be frozen at-80° C. for later use.
(§5) In some cases, a direct lysis buffer was used. An appropriate volume of 3× lysis buffer (10 mM Tris, 150 mM NaCl, 1.5%-2.5% Igepal and 0.1-1 U/uL RNAsin, pH 7.4) was directly added to either K562 or A673 cells in media and mixed by pipetting 3 times. The plates were then incubated at room temperature with shaking/rocking for 20-50 minutes to allow for lysis to take place. After this time, the cell lysate plate was transferred to ice to set up for the RT-qPCR reactions. The lysates could also be frozen at −80° C. for later use.
(§6) To set up 10 uL RT-qPCR reactions, cell lysates were transferred to 384-well qPCR plates containing the master mix according to the table below. The plates were sealed, gently vortexed, and spun down before the run. The volumes were adjusted accordingly in some instances where the reaction was carried in 20 μL. The table below summarizes the components of the RT-qPCR reactions:
(§7) The RT-qPCR reaction was performed using a QuantStudio (ThermoFisher) under the following fast cycling conditions. […]

In another assay the test system is SMN2 mRNA. The assay can be described thus: Splicing RT-qPCR gene panel, SMN2 canonical junction (CJ) mRNA. The note with it: Homo sapiens; Table 8; larger gene panel, decrease in CJ mRNA levels. The procedure:
as §1, §2, §3, §4, §5, §6, §7

The next assay concerns MYB mRNA. Kind of assay: Splicing RT-qPCR assay, MYB canonical (CJ) and alternative (AJ) junction mRNA. The note with it: Homo sapiens; for EC50: AC50 = 50% response in AJ mRNA increase. The procedure: as §1, §2, §3, §4, §5, §6, §7
The next assay deals with HTT mRNA. Kind of assay: Splicing RT-qPCR assay, HTT canonical (CJ) and alternative (AJ) junction mRNA. The note with it: Homo sapiens; for EC50: AC50 = 50% response in AJ mRNA increase. The procedure:
as §1, §2, §3, §4, §5, §6, §7

[1] abbreviates: Table 7, RT-qPCR, A673 or K562 cells, 24 hours treatment.
Where [2] appears, read: Table 7, IC50 = 50% response in CJ mRNA decrease, RT-qPCR, A673 or K562 cells, 24 hours treatment, read-out: MYB CJ.
The mark [3] stands for this setting: Table 8, larger gene panel, decrease in CJ mRNA levels, read-out: MYB CJ IC50.
The mark [4] stands for this setting: Table 7, IC50 = 50% response in CJ mRNA decrease, RT-qPCR, A673 or K562 cells, 24 hours treatment, read-out: HTT CJ.
Where [5] appears, read: Table 8, larger gene panel, decrease in CJ mRNA levels, read-out: HTT CJ IC50.

Where two headings read alike, the source gives them in different places.

Turning to `CN1CCC(c2cc3sc(-c4cc(F)c5nn(C)cc5c4)nc3s2)CC1` [Compound 151, 7-fluoro-2-methyl-5-[5-(1-methylpiperidin-4-yl)thieno[2,3-d][1,3]thiazol-2-yl]indazole], the IC50 in the assay on Target C mRNA is 0.1 to 1 µM; in the assay on SMN2 mRNA, below 0.1 µM; with MYB mRNA (setting [2]), 0.1 to 1 µM; in the assay with MYB mRNA (setting [3]), 1 to 10 µM; with HTT mRNA (setting [4]), below 0.1 µM; in the assay on HTT mRNA (setting [5]), below 0.1 µM. Also, the results for the EC50 in the assay on MYB mRNA (setting [1]) and with HTT mRNA (setting [1]) were 1 to 10 µM and below 0.1 µM, respectively.
For the compound `CN(C)C1CCN(c2cc3sc(-c4cc(F)c5nn(C)cc5c4)nc3s2)CC1` [Compound 154, 1-[2-(7-fluoro-2-methylindazol-5-yl)thieno[2,3-d][1,3]thiazol-5-yl]-N,N-dimethylpiperidin-4-amine], the IC50 in the assay on Target C mRNA was 0.1 to 1 µM; with SMN2 mRNA, below 0.1 µM; in the assay on MYB mRNA (setting [2]) it was 0.1 to 1 µM; in the assay on MYB mRNA (setting [3]), 0.1 to 1 µM; in the assay with HTT mRNA (setting [4]), 0.1 to 1 µM; in the assay on HTT mRNA (setting [5]) it was 0.1 to 1 µM. Moreover, the 50% effective concentration (EC50) with MYB mRNA (setting [1]) and with HTT mRNA (setting [1]) was 0.1 to 1 µM each time.
Take `CN(c1cc2sc(-c3ccc(-c4cn[nH]c4)cc3O)nc2s1)[C@@H]1C[C@H]2CC[C@@H](C1)N2` [Compound 191, 2-{5-[(1R,3R,5S)-8-azabicyclo[3.2.1]octan-3-yl(methyl)amino]thieno[2,3-d][1,3]-thiazol-2-yl}-5-(1H-pyrazol-4-yl)phenol]: the IC50 in the assay with Target C mRNA, in the assay on SMN2 mRNA, with MYB mRNA (setting [2]), in the assay on MYB mRNA (setting [3]), in the assay with HTT mRNA (setting [4]) and in the assay with HTT mRNA (setting [5]) was above 10 µM throughout. The EC50 in the assay on MYB mRNA (setting [1]) and in the assay on HTT mRNA (setting [1]) was above 10 µM in each case.
For the compound `Cc1cn2nc(-c3nc4sc(C5=CCOCC5)cc4s3)cc(C)c2n1` [Compound 195, 6-[5-(3,6-dihydro-2H-pyran-4-yl)thieno[2,3-d][1,3]thiazol-2-yl]-2,8-dimethylimidazo[1,2-b]pyridazine], the IC50 with Target C mRNA, in the assay on SMN2 mRNA, in the assay with MYB mRNA (setting [2]), in the assay with MYB mRNA (setting [3]), in the assay with HTT mRNA (setting [4]) and in the assay on HTT mRNA (setting [5]) was 0.1 to 1 µM throughout. Besides, the EC50 with MYB mRNA (setting [1]) and in the assay on HTT mRNA (setting [1]) was 0.1 to 1 µM each time.
`Cc1cn2nc(-c3nc4sc(C5CCOCC5)cc4s3)cc(C)c2n1` [Compound 196, 2,8-dimethyl-6-[5-(oxan-4-yl)thieno[2,3-d][1,3]thiazol-2-yl]imidazo[1,2-b]pyridazine]: the IC50 in the assay on Target C mRNA, with SMN2 mRNA, in the assay with MYB mRNA (setting [2]), in the assay with MYB mRNA (setting [3]), in the assay with HTT mRNA (setting [4]) and with HTT mRNA (setting [5]) was 1 to 10 µM in each case. The EC50 in the assay on MYB mRNA (setting [1]) and in the assay with HTT mRNA (setting [1]) was 1 to 10 µM in each case.
`Cc1cn2nc(-c3nc4sc(C5CCNC5)cc4s3)cc(C)c2n1` (centres unmarked) [Compound 197, 3-(2-{2,8-dimethylimidazo[1,2-b]pyridazin-6-yl}thieno [2,3-d][1,3]thiazol-5-yl)pyrrolidine]: the IC50 in the assay on Target C mRNA lay within 1 to 10 µM; in the assay on SMN2 mRNA, 0.1 to 1 µM; with MYB mRNA (setting [2]), 0.1 to 1 µM; in the assay with MYB mRNA (setting [3]), 0.1 to 1 µM; with HTT mRNA (setting [4]) it was 0.1 to 1 µM; in the assay with HTT mRNA (setting [5]), 0.1 to 1 µM. Also, the EC50 in the assay on MYB mRNA (setting [1]) and in the assay on HTT mRNA (setting [1]) was 0.1 to 1 µM each time.
As to `Cc1cn2nc(-c3nc4sc(C5=CCNCC5)cc4s3)cc(C)c2n1` [Compound 198, 4-(2-{2,8-dimethylimidazo[1,2-b]pyridazin-6-yl}thieno[2,3-d][1,3]thiazol-5-yl)-1,2,3,6-tetrahydropyridine], the IC50 is 1 to 10 µM in the assay with Target C mRNA; below 0.1 µM in the assay with SMN2 mRNA; 0.1 to 1 µM in the assay with MYB mRNA (setting [2]); 0.1 to 1 µM in the assay with MYB mRNA (setting [3]); below 0.1 µM in the assay on HTT mRNA (setting [4]); 0.1 to 1 µM in the assay on HTT mRNA (setting [5]). The EC50 in the assay on MYB mRNA (setting [1]) and in the assay with HTT mRNA (setting [1]) was 0.1 to 1 µM throughout.

For the origin of these results see patent US20250109140A1, “5-[5-(PIPERIDIN-4-YL)THIENO[3,2-C]PYRAZOL-2-YL]INDAZOLE DERIVATIVES AND RELATED COMPOUNDS AS MODULATORS FOR SPLICING NUCLEIC ACIDS AND FOR THE TREATMENT OF PROLIFERATIVE DISEASES” (REMIX THERAPUTICS INC., priority 2022, published 2025).
